Assay results as given in patent US10294202B2, “Pyrrolidinones as herbicides” (FMC Corporation, priority 2013, dated 2019).
Several values for one entry are separate records, joined by “and”; a condition that tells them apart may be missing. Equal entries are not always repeated.

Experiments:
barnyardgrass (ECHCG) = assay: Test G paddy mixture test (Colby); assay type: in vivo, Echinochloa crus-galli; details: applied alone, 20 g a.i./ha; 14 d; scale 0-100
Protocol: (§1) Seeds of small-flower umbrella […], Cyperus difformis) and […], Heteranthera limosa) were sown on the soil surface in two separate quadrants of 11-cm (4-inch) tubs filled with steam pasteurized Tama soil. Simultaneously, plantings of […], Echinochloa crus-galli) and transplanted japonica rice (ORYSA, Oryza sativa) were established in separate “plug” flats. […] Herbicide application timing was targeted at the 2.0 to 2.5 leaf stage and the plants were treated with test chemicals formulated in a non-phytotoxic solvent. Treated plants and controls were maintained in a greenhouse for 14 d, after which time all species were compared to controls and visually evaluated. Plant response ratings are summarized in Tables G1 through G12, and are based on a scale of 0 to 100 where 0 is no effect and 100 is complete control. A dash (-) response means no test result. Colby's Equation was used to determine the herbicidal effects expected from the mixtures. […] “Exp.” is the expected effect calculated from Colby's Equation.

ducksalad (HETLI) = assay: Test G paddy mixture test (Colby); assay type: in vivo, Heteranthera limosa; details: applied alone, 20 g a.i./ha; 14 d; scale 0-100
Protocol: as §1

[1] = system: small-flower umbrella sedge (CYPDI); assay: Test G paddy mixture test (Colby); assay type: in vivo, Cyperus difformis; details: applied alone, 20 g a.i./ha; 14 d; scale 0-100
Protocol: as §1

corn (ZEAMD) = assay: Test H preemergence mixture test (Colby); assay type: in vivo, Zea mays; details: applied alone, 21 d, mean of three replicates, scale 0-100
Excerpt: (§2) Colby's Equation was used to determine the herbicidal effects expected from the mixtures. Colby's Equation (Colby, S. R. “Calculating Synergistic and Antagonistic Responses of Herbicide Combinations,” Weeds, 15(1), pp 20-22 (1967)) calculates the expected additive effect of herbicidal mixtures and for two active ingredients is of the form: Pa+b=Pa+Pb−(PaPb/100)
(§3) where • Pa+b is the percentage effect of the mixture expected from additive contribution of the individual components: • Pa is the observed percentage effect of the first active ingredient at the same use rate as in the mixture, and • Pb is the observed percentage effect of the second active ingredient at the same use rate as in the mixture. In the following Tables, rates are shown in grams of active ingredient per hectare (g a.i./ha); “Obsd.” is the observed effect. “Exp.” is the expected effect calculated from Colby's Equation.
(§4) This test evaluated the effect of mixtures of compound 80 with several commercial herbicides on four plant species. Seeds of plant species selected from corn (ZEAMD, Zea mays), soybean (GLXMA, Glycine max), waterhemp (common waterhemp, AMATA, Amaranthus rudis), and giant foxtail (SETFA, Setaria faberii) were planted into a silt loam soil and treated preemergence with test chemicals formulated in a non-phytotoxic solvent mixture which included a surfactant and applied using a volume of 281 L/ha. Each treatment was replicated three times. Treated plants and controls were maintained in a greenhouse using supplemental lighting to maintain a photoperiod of about 16 h; daytime and nighttime temperatures were about 24-30° C. and 19-21° C., respectively. Nutrients were applied using a balanced fertilizer applied through the watering system. At 21 d after treatment, all species were compared to controls and visually evaluated. Plant response ratings were calculated as the means of the three replicates, are summarized in Tables H1 through H5, and are based on a scale of 0 to 100 where 0 is no effect and 100 is complete control. A dash (-) response means no test result. The Expected (Exp.) results were calculated using Colby's Equation as described for Test G above.

giant foxtail (SETFA) = assay: Test H preemergence mixture test (Colby); assay type: in vivo, Setaria faberii; details: applied alone, 21 d, mean of three replicates, scale 0-100
waterhemp (AMATA) = assay: Test H preemergence mixture test (Colby); assay type: in vivo, Amaranthus rudis; details: applied alone, 21 d, mean of three replicates, scale 0-100
Excerpt: as §2, §3, §4

soybean (GLXMA) = assay: Test H preemergence mixture test (Colby); assay type: in vivo, Glycine max; details: applied alone, 21 d, mean of three replicates, scale 0-100
Excerpt: as §2, §3, §4

Structure (SMILES)	ECHCG Obsd. (barnyardgrass (ECHCG))	HETLI Obsd. (ducksalad (HETLI))	CYPDI Obsd. [1]	ZEAMD Obsd. (corn (ZEAMD); 62 g a.i./ha)	ZEAMD Obsd. (corn (ZEAMD); 125 g a.i./ha)	SETFA Obsd. (giant foxtail (SETFA); 62 g a.i./ha)	SETFA Obsd. (giant foxtail (SETFA); 125 g a.i./ha)	AMATA Obsd. (waterhemp (AMATA); 62 g a.i./ha)	AMATA Obsd. (waterhemp (AMATA); 125 g a.i./ha)	GLXMA Obsd. (soybean (GLXMA); 62 g a.i./ha)	GLXMA Obsd. (soybean (GLXMA); 125 g a.i./ha)
COC(=O)c1ccccc1CS(=O)(=O)NC(=O)Nc1nc(OC)cc(OC)n1 [Bensulfuron-methyl]	65	100	100 and 98								
CCNc1nc(Cl)nc(NC(C)C)n1 [Atrazine]				0	0	0	8	33	90	13	48
